The source of these data is patent US8247610B2, “Amine linked modulators of γ-secretase” (Janssen Pharmaceutica N.V., priority 2007, dated 2012).

The test deals with T1, γ-secretase (Homo sapiens, UniProt P49768).
T1 construct: endogenous in cells; host or cells: SKNBE2 cells carrying APP 695 wild type
Put plainly: Screening for γ-secretase-modulating activity in SKNBE2 cells carrying the APP 695 wild type. The conditions noted are these: SKNBE2 cells carrying APP 695 wild type. The class given is cell-based. As to the method: Screening of the Compounds of the Invention for γ-Secretase-Modulating Activity
Screening was carried out using SKNBE2 cells carrying the APP 695—wild type, grown in DMEM/NUT-mix F12 (HAM) provided by Gibco (cat no. 31330-38) containing 5% Serum/Fe supplemented with 1% non-essential amino acids.
Cells were grown to near confluency.
The screening was performed using the assay as described in Citron et al (1997) Nature Medicine 3: 67.

The EC50 is the midpoint of the concentration-response curve. The low end stands for higher potency in that assay, the high end for lower potency in that assay. Regarding `CC(C)CCN(Cc1cc(-c2ccc(C(F)(F)F)cc2)cc(C(CC(C)C)C(=O)O)c1)Cc1cc(F)c(F)c(F)c1` (stereo not shown) [Compound 54, 4-Methyl-2-(5-{[(3-methyl-butyl)-(3,4,5-trifluoro-benzyl)-amino]-methyl}-4′-trifluoromethyl-biphenyl-3-yl)-pentanoic acid], the EC50 was 270 nM.

In the case of `CC(C)CCC(Nc1cc(-c2ccc(C(F)(F)F)cc2)cc(C(CC(C)C)C(=O)O)c1)c1cc(C(F)(F)F)cc(C(F)(F)F)c1` (stereo not shown) [Compound 30, 2-{5-[1-(3,5-Bis-trifluoromethyl-phenyl)-4-methyl-pentylamino]-4′-trifluoromethyl-biphenyl-3-yl}-4-methyl-pentanoic acid], it took 220 nM to reach a half-maximal effect (EC50).

By inhibition is commonly meant the relative decrease from the control value, in per cent. Higher therefore signals a strong effect. `CC(C)CCC(Nc1cc(CC(=O)O)cc(-c2ccc(C(F)(F)F)cc2)c1)c1ccc(C(F)(F)F)cc1` (stereo not shown) [Compound 32] came in with an inhibition at 0.3 µM of 25%.

In turn, `CC(C)C[C@@H](C(=O)O)c1cc(NCc2ccc(C(F)(F)F)cc2)cc(-c2ccc(C(F)(F)F)cc2)c1` [Compound 44, (R) 4-Methyl-2-[4′-trifluoromethyl-5-(4-trifluoromethyl-benzylamino)-biphenyl-3-yl]-pentanoic acid] yielded an inhibition at 0.3 µM of 7%.

Consider `CCN(c1ccc(Cl)cc1)c1cc(-c2ccc(C(F)(F)F)cc2)cc(C(CC(C)C)C(=O)O)c1` (stereo not shown) [Example 14, 2-{5-[(4-Chloro-phenyl)-ethyl-amino]-4′-trifluoromethyl-biphenyl-3-yl}-4-methyl-pentanoic acid], for which the inhibition at 0.3 µM came out at 14%.

`CC(C)CCN(Cc1ccc(C(F)(F)F)cc1)c1cc(-c2ccc(C(F)(F)F)cc2)cc(C(CC(C)C)C(=O)O)c1` (stereo not shown) [Compound 45, 4-Methyl-2-{5-[(3-methyl-butyl)-(4-trifluoromethyl-benzyl)-amino]-4′-trifluoromethyl-biphenyl-3-yl}-pentanoic acid] had an EC50 of 580 nM.

Turning to `CCN(c1cc(-c2ccc(C(F)(F)F)cc2)cc(C(CC(C)C)C(=O)O)c1)c1cccc(C(F)(F)F)c1` (stereo not shown) [Example 13, 2-{5-[Ethyl-(3-trifluoromethyl-phenyl)-amino]-4′-trifluoromethyl-biphenyl-3-yl}-4-methyl-pentanoic acid], 0.3 µM produced 16% inhibition.
